How the values were obtained:
Format in all cases: functional, cell-based
HeLa = assay: Cytotoxicity against human HeLa cells
C6 = assay: Cytotoxicity against rat C6 cells
H9c2 = assay: Cytotoxicity against rat H9c2 cells

Measured: IC50

C=C1C2CCC3=C4CC[C@H]([C@H](C)CC[C@@H](C)C(C)C)[C@@]4(C)CC[C@@H]3[C@@]2(C)CC[C@@H]1O (stereo not given in full) [CONICASTEROL]
> 70 µM: all assays above

C=C1C2CCC3=C4CC[C@H]([C@H](C)CC[C@H](CC)C(C)C)[C@@]4(C)CC[C@@H]3[C@@]2(C)CC[C@@H]1O (stereo not given in full) [THEONELLASTEROL]
> 70 µM: all assays above

C/C(Cl)=C/C=C/C=C/C=C/C=C/C(=O)O [AURANTOIC ACID]
> 70 µM: all assays above

C=C(CC[C@@H](C)[C@H]1CCC2=C3CCC4C(=C)[C@@H](O)CC[C@]4(C)[C@H]3CC[C@@]21C)C(C)C (stereo not given in full) [DEHYDROCONICASTEROL]
> 70 µM: all assays above

C/C(Cl)=C/C=C/C=C/C=C/C=C/C(O)=C1\C(=O)[C@H](CC(N)=O)N([C@@H]2OC[C@@H](O)[C@H](O)[C@H]2O)C1=O [AURANTOSIDE G]
> 70 µM: all assays above

From ChEMBL document CHEMBL1154811, “Dehydroconicasterol and aurantoic acid, a chlorinated polyene derivative, from the Indonesian sponge Theonella swinhoei” (J Nat Prod, 2009)
